This passage reports IC50 results from patent US20180148418A1, “AMIDO-SUBSTITUTED CYCLOHEXANE DERIVATIVES” (Bayer Pharma Aktiengesellschaft, priority 2015, published 2018).

Each structure is given as a SMILES string. Bounds are passed on as bounds.

Experiment [1] concerns HEK293 cells cotransfected with the FOP control vector. The experiment in a line: HEK293 FOP assay (control reporter with non-functional TCF elements). The class given is cell-based. Particulars: Homo sapiens, 16 hours. In outline:
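Stable HEK293 line carrying FOP control reporter (randomized non-functional TCF sites, with pcDNA3), Geneticin-selected, plated 24 h before assay. Stimulated with recombinant human Wnt-3a (2500-5 ng/ml) and compounds 50 μM–15 nM (3.16-fold steps) in CAFTY buffer pH 7.4 with 2 mM Ca2+, 0.01% BSA, run parallel to TOP line.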

The subject of experiment [2] is wildtype Wnt signaling cascade. Put plainly: HEK293 TOP assay (Super TopFlash luciferase reporter, Wnt-3a stimulated). Particulars: Homo sapiens, HEK293, 16 h, HEK293 TOP reporter cells, Wnt3a at EC50, 16 hours. Type of experiment: cell-based. In outline: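 HEK293 cells stably carrying Super TopFlash (TOP) run in parallel with FOP cells, 10000/well plated 24 h ahead, stimulated with recombinant human Wnt-3a. Compounds tested 50 μM to 15 nM in 3.16-fold steps in CAFTY buffer pH 7.4 with 2 mM Ca^2+ and 0.01% BSA; luciferase read-out.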
In general terms: In a reporter assay the amount or activity of a reporter protein is the signal.

Experiment [3] has as its target T1, TNKS2 (Homo sapiens, UniProt Q9H2K2).
T1 construct: purchased BPS Bioscience, San Diego, USA 80572 (TNKS2 Histone Ribosylation Assay Kit)
T1 sequence (Q9H2K2 1-1166): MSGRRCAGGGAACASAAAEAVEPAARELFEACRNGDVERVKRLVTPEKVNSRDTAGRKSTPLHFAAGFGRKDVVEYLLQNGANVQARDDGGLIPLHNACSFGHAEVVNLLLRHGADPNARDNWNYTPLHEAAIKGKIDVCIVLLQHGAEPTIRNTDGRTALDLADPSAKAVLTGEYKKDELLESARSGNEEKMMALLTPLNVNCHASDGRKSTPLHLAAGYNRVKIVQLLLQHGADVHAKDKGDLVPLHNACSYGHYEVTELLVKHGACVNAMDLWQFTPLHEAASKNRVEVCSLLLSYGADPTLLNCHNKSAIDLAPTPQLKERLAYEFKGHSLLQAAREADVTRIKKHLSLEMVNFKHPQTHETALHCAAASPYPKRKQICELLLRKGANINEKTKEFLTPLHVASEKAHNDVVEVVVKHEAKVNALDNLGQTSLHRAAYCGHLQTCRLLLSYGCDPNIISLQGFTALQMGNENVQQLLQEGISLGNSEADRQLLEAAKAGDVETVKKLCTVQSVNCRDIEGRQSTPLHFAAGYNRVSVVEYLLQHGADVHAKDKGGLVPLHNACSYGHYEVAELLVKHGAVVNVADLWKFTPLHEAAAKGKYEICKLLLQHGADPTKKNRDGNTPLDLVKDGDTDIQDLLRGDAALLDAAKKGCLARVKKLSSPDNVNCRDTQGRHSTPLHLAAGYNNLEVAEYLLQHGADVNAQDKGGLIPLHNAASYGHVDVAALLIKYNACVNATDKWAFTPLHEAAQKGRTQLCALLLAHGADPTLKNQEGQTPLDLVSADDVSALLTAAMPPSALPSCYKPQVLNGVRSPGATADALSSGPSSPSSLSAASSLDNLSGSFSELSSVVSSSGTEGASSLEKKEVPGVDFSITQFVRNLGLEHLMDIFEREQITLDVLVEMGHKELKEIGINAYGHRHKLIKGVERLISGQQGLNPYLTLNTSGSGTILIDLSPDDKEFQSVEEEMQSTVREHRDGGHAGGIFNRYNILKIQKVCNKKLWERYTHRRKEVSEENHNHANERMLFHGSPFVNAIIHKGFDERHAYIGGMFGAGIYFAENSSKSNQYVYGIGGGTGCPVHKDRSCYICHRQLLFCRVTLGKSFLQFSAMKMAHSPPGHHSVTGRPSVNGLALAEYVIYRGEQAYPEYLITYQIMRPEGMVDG
Put plainly: TNKS2 Assay B (auto-parsylation, [3H]-NAD+ SPA). The class given is biochemical. Particulars: 6 nM TNKS2, auto-parsylation, over night at room temperature.

A word on the IC50: it is the concentration that inhibits the measured activity by half. A lower IC50 goes with greater potency. `Cc1cc(NC(=O)[C@H]2CC[C@H](NC(=O)c3[nH]cnc3C(=O)NCC3CCCO3)CC2)c(Cl)cc1F` (stereo partly drawn) [Example 64, N^5-{trans-4-[(2-chloro-4-fluoro-5-methylphenyl)carbamoyl]cyclohexyl}-N^4-(tetrahydrofuran-2-ylmethyl)-1H-imidazole-4,5-dicarboxamide]: the IC50 is 27000 nM in experiment [1], 740 nM in experiment [2] and 49 nM in experiment [3].

For the molecule `COCC(C)NC(=O)c1nc[nH]c1C(=O)N[C@H]1CC[C@H](C(=O)Nc2c(F)cc(F)cc2Cl)CC1` (stereo partly drawn) [Example 65, N^5-{trans-4-[(2-chloro-4,6-difluorophenyl)carbamoyl]cyclohexyl}-N^4-(1-methoxypropan-2-yl)-1H-imidazole-4,5-dicarboxamide], the IC50 in experiment [1] is at least 50000 nM; in experiment [2] it was 230 nM; in experiment [3], 190 nM.

In the case of `COC[C@H](C)NC(=O)c1nc[nH]c1C(=O)N[C@H]1CC[C@H](C(=O)Nc2c(F)cc(F)cc2Cl)CC1` [Example 66, N^5-{trans-4-[(2-chloro-4,6-difluorophenyl)carbamoyl]cyclohexyl}-N^4-[(2S)-1-methoxypropan-2-yl]-1H-imidazole-4,5-dicarboxamide], the IC50 in experiment [1] is at least 50000 nM; in experiment [2], 250 nM; in experiment [3], 280 nM.

Take `COC[C@@H](C)NC(=O)c1nc[nH]c1C(=O)N[C@H]1CC[C@H](C(=O)Nc2c(F)cc(F)cc2Cl)CC1` [Example 67, N^5-{trans-4-[(2-chloro-4,6-difluorophenyl)carbamoyl]cyclohexyl}-N^4-[(2R)-1-methoxypropan-2-yl]-1H-imidazole-4,5-dicarboxamide]: the concentration for half-maximal inhibition (IC50) is at least 50000 nM in experiment [1], 220 nM in experiment [2] and 280 nM in experiment [3].

`COC(C)CNC(=O)c1nc[nH]c1C(=O)N[C@H]1CC[C@H](C(=O)Nc2c(F)cc(F)cc2Cl)CC1` (stereo partly drawn) [Example 68, N^5-{trans-4-[(2-chloro-4,6-difluorophenyl)carbamoyl]cyclohexyl}-N^4-(2-methoxypropyl)-1H-imidazole-4,5-dicarboxamide]: the IC50 in experiment [1] was determined as 33000 nM; in experiment [2], 120 nM; in experiment [3], 79 nM.

Take `O=C(NCC1CCCO1)c1nc[nH]c1C(=O)N[C@H]1CC[C@H](C(=O)Nc2c(F)cc(F)cc2Cl)CC1` (stereo partly drawn) [Example 69, N^5-{trans-4-[(2-chloro-4,6-difluorophenyl)carbamoyl]cyclohexyl}-N^4-(tetrahydrofuran-2-ylmethyl)-1H-imidazole-4,5-dicarboxamide]: the IC50 in experiment [1] was at least 50000 nM; in experiment [2], 170 nM; in experiment [3], 57 nM.

With `O=C(NC[C@H]1CCCO1)c1nc[nH]c1C(=O)N[C@H]1CC[C@H](C(=O)Nc2c(F)cc(F)cc2Cl)CC1` [Example 70, N^5-{trans-4-[(2-chloro-4,6-difluorophenyl)carbamoyl]cyclohexyl}-N^4-[(2R)-tetrahydrofuran-2-ylmethyl]-1H-imidazole-4,5-dicarboxamide], the IC50 came to 29000 nM in experiment [1], 220 nM in experiment [2] and 76 nM in experiment [3].

For `O=C(N[C@H]1CC[C@H](C(=O)Nc2ccc(F)cc2Cl)CC1)c1[nH]cnc1C(=O)N1CC(F)(F)C1` [Example 72, N-{trans-4-[(2-chloro-4-fluorophenyl)carbamoyl]cyclohexyl}-4-[(3,3-difluoroazetidin-1-yl)carbonyl]-1H-imidazole-5-carboxamide], the IC50 in experiment [1] was at least 50000 nM; in experiment [2] it was 140 nM; in experiment [3] it was 26 nM.

Take `COC(C)(C)CNC(=O)c1nc[nH]c1C(=O)N[C@H]1CC[C@H](C(=O)Nc2ccc(F)cc2Cl)CC1` [Example 73, N^5-{trans-4-[(2-chloro-4-fluorophenyl)carbamoyl]cyclohexyl}-N^4-(2-methoxy-2-methylpropyl)-1H-imidazole-4,5-dicarboxamide]: the IC50 in experiment [1] was determined as 19000 nM; in experiment [2], 400 nM; in experiment [3] it was 190 nM.

Turning to `O=C(NCCC1CC1)c1nc[nH]c1C(=O)N[C@H]1CC[C@H](C(=O)Nc2ccc(F)cc2Cl)CC1` [Example 74, N^5-{trans-4-[(2-chloro-4-fluorophenyl)carbamoyl]cyclohexyl}-N^4-(2-cyclopropylethyl)-1H-imidazole-4,5-dicarboxamide], the figures for the IC50 in experiment [1], in experiment [2] and in experiment [3] were 32000 nM, 190 nM and 73 nM, respectively.

As for `CC(C)(O)CNC(=O)c1nc[nH]c1C(=O)N[C@H]1CC[C@H](C(=O)Nc2ccc(F)cc2Cl)CC1` [Example 75, N^5-{trans-4-[(2-chloro-4-fluorophenyl)carbamoyl]cyclohexyl}-N^4-(2-hydroxy-2-methylpropyl)-1H-imidazole-4,5-dicarboxamide], the IC50 in experiment [1] is at least 50000 nM; in experiment [2], 370 nM; in experiment [3] it was 100 nM.

Regarding `CC(C)OCCNC(=O)c1nc[nH]c1C(=O)N[C@H]1CC[C@H](C(=O)Nc2ccc(F)cc2Cl)CC1` [Example 76, N^5-{trans-4-[(2-chloro-4-fluorophenyl)carbamoyl]cyclohexyl}-N^4-(2-isopropoxyethyl)-1H-imidazole-4,5-dicarboxamide], the 50% inhibitory concentration (IC50) in experiment [1] is at least 50000 nM; in experiment [2], 230 nM; in experiment [3] it was 78 nM.

For the molecule `CC(C)NCCNC(=O)c1nc[nH]c1C(=O)N[C@H]1CC[C@H](C(=O)Nc2ccc(F)cc2Cl)CC1` [Example 77, N^5-{trans-4-[(2-chloro-4-fluorophenyl)carbamoyl]cyclohexyl}-N^4-[2-(isopropylamino)ethyl]-1H-imidazole-4,5-dicarboxamide], the concentration for half-maximal inhibition (IC50) was at least 50000 nM in experiment [1], 270 nM in experiment [2] and 60 nM in experiment [3].

For the molecule `O=C(NCC1CCCO1)c1nc[nH]c1C(=O)N[C@H]1CC[C@H](C(=O)Nc2ccc(F)cc2Cl)CC1` (stereo partly drawn) [Example 78, N^5-{trans-4-[(2-chloro-4-fluorophenyl)carbamoyl]cyclohexyl}-N^4-(tetrahydrofuran-2-ylmethyl)-1H-imidazole-4,5-dicarboxamide], the IC50 in experiment [1] worked out at 9700 nM; in experiment [2], 130 nM; in experiment [3] it was 89 nM.

Take `O=C(NC[C@@H]1CCCO1)c1nc[nH]c1C(=O)N[C@H]1CC[C@H](C(=O)Nc2ccc(F)cc2Cl)CC1` [Example 79, N^5-{trans-4-[(2-chloro-4-fluorophenyl)carbamoyl]cyclohexyl}-N^4-[(2S)-tetrahydrofuran-2-ylmethyl]-1H-imidazole-4,5-dicarboxamide]: the concentration for half-maximal inhibition (IC50) in experiment [1] was 43000 nM; in experiment [2] it was 140 nM; in experiment [3] it was 100 nM.

As for `O=C(NC[C@H]1CCCO1)c1nc[nH]c1C(=O)N[C@H]1CC[C@H](C(=O)Nc2ccc(F)cc2Cl)CC1` [Example 80, N^5-{trans-4-[(2-chloro-4-fluorophenyl)carbamoyl]cyclohexyl}-N^4-[(2R)-tetrahydrofuran-2-ylmethyl]-1H-imidazole-4,5-dicarboxamide], the values for the IC50 in experiment [1], in experiment [2] and in experiment [3] were 23000 nM, 90 nM and 50 nM, respectively.

As to `COC(C)CNC(=O)c1nc[nH]c1C(=O)N[C@H]1CC[C@H](C(=O)Nc2ccc(F)cc2Cl)CC1` (stereo partly drawn) [Example 81, N^5-{trans-4-[(2-chloro-4-fluorophenyl)carbamoyl]cyclohexyl}-N^4-(2-methoxypropyl)-1H-imidazole-4,5-dicarboxamide], the half-inhibitory concentration (IC50) in experiment [1] is 6800 nM; in experiment [2], 150 nM; in experiment [3], 72 nM.

For `COCC(C)NC(=O)c1nc[nH]c1C(=O)N[C@H]1CC[C@H](C(=O)Nc2ccc(F)cc2Cl)CC1` (stereo partly drawn) [Example 82, N^5-{trans-4-[(2-chloro-4-fluorophenyl)carbamoyl]cyclohexyl}-N^4-(1-methoxypropan-2-yl)-1H-imidazole-4,5-dicarboxamide], the figures for the IC50 in experiment [1], in experiment [2] and in experiment [3] were at least 50000 nM, 380 nM and 250 nM, respectively.
